Source: ChEMBL document CHEMBL1201862, “PubChem BioAssay data set” (2004)
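Interpolation was linear, between the two tested concentrations surrounding the appropriate level; five concentrations were tested over 48 hours in 96-well plates. GI50 is the concentration that inhibits growth by half.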 Calls of active or inactive are those of the source. Cut-off read from the data, not from the text of the source: active = GI50 up to about 1.1 µM and inactive = higher.

Assays:
Assay in all cases: NCI anticancer screen, dose series, 48 h
[1] = system: SK-MEL-5
[2] = system: ACHN
[3] = system: HL-60
[4] = system: MDA-MB-435
[5] = system: MOLT-4
[6] = system: OVCAR-8
[7] = system: RPMI-8226
[8] = system: SR
[9] = system: SF-539
[10] = system: TK-10
[11] = system: MDA-N
[12] = system: HT-29
[13] = system: Hs-578T
[14] = system: HOP-62
[15] = system: HOP-92
[16] = system: SF-268
[17] = system: SK-OV-3
[18] = system: MDA-MB-231
[19] = system: OVCAR-3
[20] = system: UACC-257

Measured: GI50

O=C(OCc1ccccc1)N(CCCCN(CCCNC(=O)C(F)(F)F)C(=O)OCc1ccccc1)CCCNC(=O)C(F)(F)F
inactive: [1] > 36.8 µM | [2] 23.9 µM | [3] > 100 µM | [4] > 100 µM | [5] 8.87 µM | [6] > 100 µM | [7] > 100 µM | [8] > 100 µM | [9] > 100 µM | [10] > 100 µM | [11] > 100 µM | [12] > 28.4 µM | [13] > 100 µM | [14] > 100 µM | [15] > 100 µM | [16] > 100 µM | [17] > 100 µM | [18] > 100 µM | [19] > 100 µM | [20] > 100 µM

CC(=O)NNc1nc(C)c(C(/C=C/c2ccc3c(c2)OCO3)=N/Nc2ccccc2)s1
inactive: [1] > 100 µM | [2] > 100 µM | [3] > 100 µM | [4] > 100 µM | [5] > 100 µM | [6] > 100 µM | [7] > 100 µM | [8] > 100 µM | [9] > 100 µM | [10] > 100 µM | [11] > 100 µM | [12] > 100 µM | [13] > 100 µM | [14] > 100 µM | [15] > 100 µM | [16] > 100 µM | [17] > 100 µM | [18] > 100 µM | [19] > 100 µM | [20] > 100 µM
